For 21 compounds, IC50 results are on record in US20180057465A1, “Inhibitors of Necroptosis” (Catalyst Therapeutics Pty Ltd, priority 2015, published 2018).

Read-outs that look alike come from different tables or passages of the source.

In assay [1] the test system is U937 human histiocytic leukemia cell line. In words: Assay 2: inhibition of TSQ induced necroptosis, 96 well plate format. To be noted: read-out: Inhibition of TSQ-induced necroptosis (cell based assay) IC50 (U937, TSQ nM). The protocol:
(§1) Assay 2: Screening Compounds for Inhibition of TSQ Induced Necroptosis, 96 Well Plate Format.
(§2) Cell Line ID: U937 human histiocytic leukemia cell line.
(§3) Cell Concentration (cells/well): Final cell density is 5000 cells per well.
(§4) Cell growth medium: HT-RPMI+7.4% FBS. Cells are cultured in Corning 150 cm^2 tissue culture flasks with vented caps at 37° C./5% CO2.
(§5) Incubation time (hours): 48 hours following addition of compounds and death stimuli
(§6) Compound concentration: 100 nM
(§7) DMSO final concentration (% v/v): 0.3%.
(§8) Compounds that are in the Death Stimulation Cocktail and Their Final Concentrations:
(§9) hTNF-Fc (100 ng/ml)—produced by standard procedures as shown in Bossen et al., J Biol Chem, 2006, 281(20), 13964-13971.
(§10) Compound A (500 nM)—Smac mimetic, Tetralogic
(§11) Q-VD-OPh (10 μM)—MP Biomedicals
(§12) Data is loaded into Abase and normalised. 10 points titration curve are fitted with the 4 parameter logistic nonlinear regression model and the IC50 reported reflects the inflection point of the curve for curve fitting.

The test system of another assay is U937. Description: Off-target effect (cell based assay), reported with assay 2. To be noted: Homo sapiens. On the procedure: as §1, §2, §3, §4, §5, §6, §7, §12
Assay [2] deals with U937 human histiocytic leukemia cell line. In words: Assay 1: inhibition of TSQ induced necroptosis, 96 well plate format. In kind it is cell-based. The protocol: For in vitro analysis, the necroptosis inhibition may be determined by assays used to measure TSQ-induced necroptosis, as described in the biological tests defined herein.
(§13) Assay 1: Screening Compounds for Inhibition of TSQ Induced Necroptosis, 96 Well Plate Format.
(§14) Cell Line ID: […] human histiocytic leukemia cell line.
(§15) Cell Concentration (cells/well): 35,000 per well in 120 μL of media, counted and plated immediately prior to addition of inhibitor and death stimuli. Final well volume of 150 μL after addition of compounds and death stimuli
(§16) Cell growth medium: HTRPMI (WEHI Media kitchen, contains L-Glutamine and penicillin, streptomycin)—supplemented with 7.4% v/v FCS (Gibco, Precision Plus. Lot #1221437)
as §5
(§17) Compound Concentrations—Log Titrations:
(§18) DMSO final concentration (% v/v): 1.2% in 10 μM well to 0.2% in the control well.
as §8, §9, §10, §11
(§19) Cells treated with PI staining (1 μg/ml) and analysed by flow cytometry

For assay [3] the test system is unchanged. Description: Off-target effect (cell based assay), reported with assay 1. The protocol:
as §13, §14, §15, §16, §5, §17, §18, §19

The mark [4] stands for this setting: U-937, read-out: Off-target effect (cell based assay) IC50 (U937, μM).
[5] abbreviates: U-937, Table 2, assay 2, U937, 5000 cells per well, hTNF-Fc 100 ng/ml, Compound A 500 nM, Q-VD-OPh 10 μM, 48 hours.
[6] abbreviates: U-937, Table 2, assay 2, U937, read-out: Off-target effect (cell based assay) IC50 (U937).
[7] abbreviates: U-937, Table 1, assay 1, hTNF-Fc 100 ng/ml, Compound A 500 nM, Q-VD-OPh 10 μM, 48 hours, PI staining, flow cytometry, read-out: Inhibition of TSQ-induced necroptosis (cell based assay) IC50.
The mark [8] stands for this setting: U-937, Table 1, assay 1, read-out: Off-target effect (cell based assay) IC50.
The mark [9] stands for this setting: U-937, comparison tables of the description, values as in Table 1 (assay 1), read-out: IC50 (nM) Necroptosis inhibition.
The mark [10] stands for this setting: U-937, comparison tables of the description, values as in Table 1 (assay 1), read-out: IC50 (nM) Off-Target Effect.

Regarding `CNC(=O)c1cc(Nc2ncc(C)c(N(C)c3ccc(NC(=O)Nc4ccc(OC(F)(F)F)cc4)cc3)n2)ccc1C` [Compound 6, N,2-dimethyl-5-((5-methyl-4-(methyl(4-(3-(4-(trifluoromethoxy)phenyl)ureido)phenyl)amino)pyrimidin-2-yl)amino)benzamide], the IC50 – broadly, the midpoint of a concentration-inhibition curve – was 29 nM in assay [1] (U-937, 48 h) and over 1000 µM in the assay on U937 (setting [4]).

Take `Cc1ccc(Nc2nccc(N(C)c3ccc(NC(=O)Nc4ccc(OC(F)(F)F)cc4)cc3)n2)cc1N1CC2(CCOCC2)CC1=O` [Compound 41, 1-(4-(methyl(2-((4-methyl-3-(3-oxo-8-oxa-2-azaspiro[4.5]decan-2-yl)phenyl)amino)pyrimidin-4-yl)amino)phenyl)-3-(4-(trifluoromethoxy)phenyl)urea]: the IC50 in assay [1] (setting [5]) is 14 nM; with U937 (setting [6]), over 10 µM.

Take `Cc1ccc(Nc2nccc(N(C)c3ccc(NC(=O)Nc4cc(F)cc(C(F)(F)F)c4)cc3)n2)cc1C(=O)OCCO` [Compound 36, 2-hydroxyethyl 5-((4-((4-(3-(3-fluoro-5-(trifluoromethyl)phenyl)ureido)phenyl)(methyl)amino)pyrimidin-2-yl)amino)-2-methylbenzoate]: the IC50 in assay [1] (setting [5]) amounted to 23 nM; in the assay with U937 (setting [6]) it was 2.42 µM.

In the case of `CN(c1ccc(NC(=O)Nc2ccc(OC(F)(F)F)cc2)cc1)c1ccnc(Nc2cccc(N3CC4(CCOCC4)CC3=O)c2)n1` [Compound 40, 1-(4-(methyl(2-((3-(3-oxo-8-oxa-2-azaspiro[4.5]decan-2-yl)phenyl)amino)pyrimidin-4-yl)amino)phenyl)-3-(4-(trifluoromethoxy)phenyl)urea], the IC50 in assay [1] (setting [5]) is 7.5 nM; with U937 (setting [6]), over 10 µM.

Take `Cc1ccc(Nc2nccc(N(C)c3ccc(NC(=O)Nc4cc(F)cc(C(F)(F)F)c4)cc3)n2)cc1N1CCNC1=O` [Compound 34, 1-(3-fluoro-5-(trifluoromethyl)phenyl)-3-(4-(methyl(2-((4-methyl-3-(2-oxoimidazolidin-1-yl)phenyl)amino)pyrimidin-4-yl)amino)phenyl)urea]: the IC50 is 23 nM in assay [2] (setting [7]), 2420 nM in assay [3] (setting [8]), 29 nM in assay [1] (setting [5]) and 0.513 µM with U937 (setting [6]).

Turning to `CN(c1ccc(NC(=O)Nc2ccc(OC(F)(F)F)cc2)cc1)c1ccnc(Nc2cccc(S(N)(=O)=O)c2)n1` [drawing 174, reference compound], the IC50 in assay [1] (U-937, 48 h) stood at 75 nM; with U937 (setting [4]) it was 1.5 µM.

On to `CNC(=O)c1cc(Nc2nccc(N(C)c3ccc(NC(=O)Nc4cccc(OC(F)(F)F)c4)cc3)n2)ccc1C` [Compound 39, N,2-dimethyl-5-((4-(methyl(4-(3-(3-(trifluoromethoxy)phenyl)ureido)phenyl)amino)pyrimidin-2-yl)amino)benzamide], for which the IC50 is 3.9 nM in assay [1] (setting [5]) and 0.419 µM in the assay on U937 (setting [6]).

For `Cc1ccc(Nc2nccc(N(C)c3ccc(NC(=O)Nc4ccc(OC(F)(F)F)cc4)cc3)n2)cc1C(N)=O` [Compound 4, 2-Methyl-5-((4-(methyl(4-(3-(4-(trifluoromethoxy)phenyl)ureido)phenyl)amino)pyrimidin-2-yl)amino) benzamide], the IC50 in assay [2] (setting [7]) is 154 nM; in assay [3] (setting [8]), 7410 nM.

Take `CN(c1ccc(NC(=O)Nc2ccc(OC(F)(F)F)cc2)cc1)c1ccnc(Nc2cccc(S(N)(=O)=O)c2)n1` [Compound 1 from AU 2014903569, reference compound]: the IC50 in assay [2] (setting [9]) was 67.9 nM; in assay [3] (setting [10]), 3570 nM.

As to `CNC(=O)c1cc(Nc2nccc(N(C)c3ccc(NC(=O)Nc4cc(F)cc(C(F)(F)F)c4)cc3)n2)ccc1CN1CCN(C)CC1` [Compound 35, 5-((4-((4-(3-(3-fluoro-5-(trifluoromethyl)phenyl)ureido)phenyl)(methyl)amino)pyrimidin-2-yl)amino)-N-methyl-2-((4-methylpiperazin-1-yl)methyl)benzamide], the IC50 is 45 nM in assay [1] (setting [5]) and 0.841 µM with U937 (setting [6]).

As to `CN(c1ccc(NC(=O)Nc2ccc(OC(F)(F)F)cc2)cc1)c1ccnc(Nc2cccc(-c3nnn(C)n3)c2)n1` [Compound 11, 1-(4-(Methyl(2-((3-(2-methyl-2H-tetrazol-5-yl)phenyl)amino)pyrimidin-4-yl)amino)phenyl)-3-(4-(trifluoromethoxy)phenyl)urea], the IC50 stood at 7.5 nM in assay [2] (setting [7]) and 1350 nM in assay [3] (setting [8]).

Turning to `CNC(=O)c1cc(Nc2nccc(N(C)c3ccc(NC(=O)Nc4cccc(CC(F)(F)F)c4)cc3)n2)ccc1C` [Compound 38, N,2-dimethyl-5-((4-(methyl(4-(3-(3-(2,2,2-trifluoroethyl)phenyl)ureido)phenyl)amino)pyrimidin-2-yl)amino)benzamide], the values for the IC50 (in assay [1] (setting [5]); with U937 (setting [6])) were 2.3 nM and 0.231 µM, respectively.

For the compound `CN(c1ccc(NC(=O)Nc2cc(F)cc(C(F)(F)F)c2)cc1)c1ccnc(Nc2cccc(S(N)(=O)=O)c2)n1` [Compound 10, 3-((4-((4-(3-(3-fluoro-5-(trifluoromethyl)phenyl)ureido)phenyl)(methyl)amino)pyrimidin-2-yl)amino)benzenesulfonamide], the IC50 in assay [2] (setting [7]) was under 1 nM; in assay [2] (setting [9]) it was under 1 nM; in assay [3] (setting [8]), 506 nM; in assay [3] (setting [10]), 506 nM.

For `CC(=O)Nc1cc(Nc2nccc(N(C)c3ccc(NC(=O)Nc4ccc(OC(F)(F)F)cc4)cc3)n2)ccc1C` [Compound 28, N-(2-methyl-5-((4-(methyl(4-(3-(4-(trifluoromethoxy)phenyl)ureido)phenyl)amino)pyrimidin-2-yl)amino)phenyl)acetamide], the values for the IC50 in assay [2] (setting [7]) and in assay [3] (setting [8]) were 93 nM and 980 nM, respectively.

In the case of `Cc1ccc(Nc2nccc(N(C)c3ccc(NC(=O)Nc4ccc(OC(F)(F)F)cc4)cc3)n2)cc1CN1CCOCC1` [Compound 18, 1-(4-(methyl(2-((4-methyl-3-(morpholinomethyl)phenyl)amino)pyrimidin-4-yl)amino)phenyl)-3-(4-(trifluoromethoxy)phenyl)urea], the IC50 in assay [2] (setting [7]) is 514 nM; in assay [3] (setting [8]), over 10000 nM.

Turning to `COCCNC(=O)c1cc(Nc2nccc(N(C)c3ccc(NC(=O)Nc4ccc(OC(F)(F)F)cc4)cc3)n2)ccc1C` [Compound 9, N-(2-Methoxyethyl)-2-methyl-5-((4-(methyl(4-(3-(4-(trifluoromethoxy)phenyl)ureido)phenyl)amino)pyrimidin-2-yl)amino)benzamide], the IC50 in assay [2] (setting [7]) is 97.3 nM; in assay [3] (setting [8]) it was over 10000 nM.

With `CN(c1ccc(NC(=O)Nc2ccc(OC(F)(F)F)cc2)cc1)c1ccnc(Nc2cccc(N3CCCC3=O)c2)n1` [Compound 8, 1-(4-(Methyl(2-((3-(2-oxopyrrolidin-1-yl)phenyl)amino)pyrimidin-4-yl)amino)phenyl)-3-(4-(trifluoromethoxy)phenyl)urea], the IC50 is 75.4 nM in assay [2] (setting [7]), 75.4 nM in assay [2] (setting [9]), over 10000 nM in assay [3] (setting [8]) and over 10000 nM in assay [3] (setting [10]).

For `CNC(=O)c1cc(Nc2nccc(N(C)c3ccc(NC(=O)Nc4cc(C(F)(F)F)cc(C(F)(F)F)c4)cc3)n2)ccc1C` [Compound 37, 5-((4-((4-(3-(3,5-bis(trifluoromethyl)phenyl)ureido)phenyl)(methyl)amino)pyrimidin-2-yl)amino)-N,2-dimethylbenzamide], the IC50 in assay [1] (setting [5]) was 71 nM; in the assay on U937 (setting [6]), 1.09 µM.

For the compound `CNC(=O)c1cc(Nc2nccc(N(C)c3ccc(NC(=O)Nc4ccc(Cl)c(C(F)(F)F)c4)cc3)n2)ccc1C` [Compound 14, 5-((4-((4-(3-(4-Chloro-3-(trifluoromethyl)phenyl)ureido)phenyl)(methyl)amino)pyrimidin-2-yl)amino)-N,2-dimethylbenzamide], the IC50 in assay [2] (setting [7]) worked out at 8.9 nM; in assay [3] (setting [8]), 1630 nM.

With `CNC(=O)c1cc(Nc2nccc(N(C)c3ccc(NC(=O)Nc4cccc(C#N)c4)cc3)n2)ccc1C` [Compound 33, 5-((4-((4-(3-(3-cyanophenyl)ureido)phenyl)(methyl)amino)pyrimidin-2-yl)amino)-N,2-dimethylbenzamide], the concentration for half-maximal inhibition (IC50) came out at 164 nM in assay [2] (setting [7]) and 4130 nM in assay [3] (setting [8]).

Take `CNC(=O)c1cc(Nc2nccc(N(C)c3ccc(NC(=O)Nc4cc(C#N)cc(C(F)(F)F)c4)cc3)n2)ccc1C` [Compound 42]: the IC50 in assay [1] (setting [5]) is 49 nM; in the assay with U937 (setting [6]), over 10 µM.
